T1: GAL4DmEcR-DEF (Drosophila melanogaster, UniProt P34021)
T1 construct: The D, E, and F domains from fruit fly Drosophila melanogaster EcR; expressed in transfected cells; host or cells: mouse NIH3T3 cells
T1 sequence (P34021 330-878): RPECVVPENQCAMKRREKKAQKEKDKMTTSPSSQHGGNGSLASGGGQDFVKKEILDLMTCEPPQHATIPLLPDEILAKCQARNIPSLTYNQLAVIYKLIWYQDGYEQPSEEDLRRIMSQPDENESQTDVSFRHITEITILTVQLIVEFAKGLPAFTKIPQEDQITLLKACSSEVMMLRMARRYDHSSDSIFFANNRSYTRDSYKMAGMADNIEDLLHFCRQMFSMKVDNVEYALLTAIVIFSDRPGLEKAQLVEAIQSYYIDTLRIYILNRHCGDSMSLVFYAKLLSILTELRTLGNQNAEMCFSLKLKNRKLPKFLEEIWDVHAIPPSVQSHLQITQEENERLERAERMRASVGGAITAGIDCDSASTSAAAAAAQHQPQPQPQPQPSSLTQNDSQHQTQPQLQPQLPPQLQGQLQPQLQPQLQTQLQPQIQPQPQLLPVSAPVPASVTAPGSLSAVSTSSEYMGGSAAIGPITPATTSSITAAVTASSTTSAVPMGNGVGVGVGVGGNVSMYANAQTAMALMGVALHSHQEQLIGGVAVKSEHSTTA


Legend:
GAL4CfEcR-DEF [1] = test: Transactivation of pFRLuc in NIH3T3 cells, VP16 RXR/USP constructs in partnership with GAL4CfEcR-DEF (FIG. 6); assay type: cell-based, Choristoneura fumiferana; conditions: for sensitivity of the switch to steroid versus non-steroid ligand: CfEcR/chimeric RXR-based switch (switch 1.13)
Protocol: (§1) Transfections: DNAs corresponding to the various switch constructs outlined in Example 1, specifically switches 1.1 through 1.6 were transfected into mouse NIH3T3 cells (ATCC) and human A549 cells (ATCC) as follows. […] NIH3T3 cells were grown in Dulbecco's modified Eagle medium (DMEM; LifeTechnologies) and A549 cells were grown in F12K nutrient mixture (LifeTechnologies). […] The cells were harvested and reporter activity was assayed. […] Reporter Assays: Cells were harvested 48 hours after adding ligands. […] Twenty μl of lysate were assayed. […] Thus, Applicants have made the surprising discovery that a chimeric RXR ligand binding domain may be used in place of a vertebrate RXR or an invertebrate RXR in an EcR-based inducible gene expression modulation system.
(§2) This Example describes the construction of four EcR-DEF-based gene switches comprising the DEF domains from Choristoneura fumiferana (Lepidoptera), Drosophila melanogaster (Diptera), Tenebrio molitor (Coleoptera), and Amblyomma americanum (Ixodidae) fused to a GAL4 DNA binding domain. In addition, the EF domains of vertebrate RXRs, invertebrate RXRs, or invertebrate USPs from Choristoneura fumiferana USP, Drosophila melanogaster USP, Locusta migratoria USP (Orthoptera), Mus musculus RXRα (Vertebrata), a chimera between MmRXRα and LmUSP (Chimera; of switch 1.13), Amblyomma americanum RXR homolog 1 (Ixodidae), Amblyomma americanum RXR homolog 2 (Ixodidae) were fused to a VP16 activation domain. […] The cells were harvested, lysed and luciferase reporter activity was measured in the cell lysates. Total fly luciferase relative light units are presented. […] The analysis was performed in triplicate and mean luciferase counts [total relative light units (RLU)] were determined as described above.

GAL4DmEcR-DEF = target: T1, GAL4DmEcR-DEF; assay type: cell-based; conditions: NIH3T3 cells; for sensitivity of the switch to steroid versus non-steroid ligand: DmEcR/chimeric RXR-based switch (switch 1.20)
Protocol: as §1, §2

[2] = tested on: TmEcR/chimeric RXR-based switch (switch 1.21); test: Transactivation of pFRLuc in NIH3T3 cells, TmEcR with chimeric RXR-EF (FIG. 8); assay type: cell-based, Tenebrio molitor; conditions: switch 1.21, NIH3T3 cells
Protocol: as §1
(§3) This Example describes the construction of four EcR-DEF-based gene switches comprising the DEF domains from Choristoneura fumiferana (Lepidoptera), Drosophila melanogaster (Diptera), Tenebrio molitor (Coleoptera), and Amblyomma americanum (Ixodidae) fused to a GAL4 DNA binding domain. […] The cells were harvested, lysed and luciferase reporter activity was measured in the cell lysates. […] The analysis was performed in triplicate and mean luciferase counts [total relative light units (RLU)] were determined as described above.

[3] = tested on: AmaEcR/chimeric RXR-based switch (switch 1.22); test: Transactivation of pFRLuc in NIH3T3 cells, AmaEcR with chimeric RXR-EF (FIG. 8); assay type: cell-based, Amblyomma americanum; conditions: switch 1.22, NIH3T3 cells
Protocol: as §1, §3

GAL4CfEcR-DEF [4] = test: HsRXRβ/LmUSP chimeric RXR LBDs with GAL4CfEcR-DEF and pFRLuc in NIH3T3 cells (FIGS. 9 and 10); assay type: cell-based, Choristoneura fumiferana; conditions: CfEcR in combination with chimera 11, FIG. 10
Text: This Example describes Applicants' further analysis of gene expression cassettes encoding various chimeric RXR polypeptides comprising a mouse RXRα isoform polypeptide fragment or a human RXRβ isoform polypeptide fragment and an LmUSP polypeptide fragment in mouse NIH3T3 cells.
Three individual clones of each chimeric RXR LBD of Table 1 were transfected into mouse NIH3T3 cells along with either GAL4CfEcR-DEF (switches 1.25-1.29 of Example 1; FIGS. 9 and 10) or GAL4DmEcR-DEF (switches 1.30-1.34 of Example 1; FIG. 11) and the reporter plasmid pFRLuc as described above. The transfected cells were cultured in the presence of either a) 0, 0.2, 1, or 10 μM non-steroidal ligand (FIG. 9), or b) 0, 0.2, 1, or 10 μM steroid ligand PonA or 0, 0.4, 0.2, 1, or 10 μM non-steroid ligand (FIGS. 10 and 11) for 48 hours. The reporter gene activity was measured and total RLU are shown. The number on top of each bar is the maximum fold induction for that treatment and is the mean of three replicates.

[5] = tested on: GAL4CfEcR-DEF/VP16HsRXRβ-(1-8)-LmUSP-(9-12)-EF (βchimera 9; switch 1.27) gene switch; test: Effect of 9-cis-retinoic acid as second ligand on transactivation of switch 1.27 in NIH3T3 cells (FIG. 12); assay type: cell-based, Choristoneura fumiferana; conditions: 0.04 μM non-steroid ligand, absence of 9-cis-retinoic acid
Protocol: In particular, Applicants have determined the effect of 9-cis-retinoic acid on the transactivation potential of the GAL4CfEcR-DEF/VP16HsRXRβ-(1-8)-LmUSP-(9-12)-EF (βchimera 9; switch 1.27) gene switch along with pFRLuc in NIH 3T3 cells in the presence of non-steroid (GSE) for 48 hours.
Briefly, GAL4CfEcR-DEF, pFRLuc and VP16HsRXRβ-(1-8)-LmUSP-(9-12)-EF (chimera #9) were transfected into NIH3T3 cells and the transfected cells were treated with 0, 0.04, 0.2, 1, 5 and 25 μM non-steroidal ligand (GSE) and 0, 1, 5 and 25 μM 9-cis-retinoic acid (Sigma Chemical Company). The reporter activity was measured at 48 hours after adding ligands.

Molecule | sensitivity of the switch to steroid versus non-steroid ligand (GAL4CfEcR-DEF [1]) | sensitivity of the switch to steroid versus non-steroid ligand (GAL4DmEcR-DEF) | sensitivity of the switch to ligand [2] | sensitivity of the switch to ligand [3] | response of EcR to ligand (GAL4CfEcR-DEF [4]) | induction [5] | fold induction (GAL4CfEcR-DEF [1]; partner for CfEcR, FIG. 6) | fold induction (GAL4DmEcR-DEF; partner for DmEcR, FIG. 7)
CC(C)CC[C@@H](O)[C@](C)(O)[C@H]1CC[C@@]2(O)C3=CC(=O)[C@@H]4C[C@@H](O)[C@@H](O)C[C@]4(C)[C@H]3CC[C@]12C [PonA, ponasterone A] | more sensitive to non-steroid than PonA | more sensitive to PonA than non-steroid | more sensitive to PonA | more sensitive to PonA | responded well to non-steroid but not to PonA |  |  | 
CCc1c(OC)cccc1C(=O)NN(C(=O)c1cc(C)cc(C)c1)C(C)(C)C [non-steroid, N-(2-ethyl-3-methoxybenzoyl)-N′-(3,5-dimethylbenzoyl)-N′-tert-butylhydrazine] | more sensitive to non-steroid than PonA | more sensitive to PonA than non-steroid | less sensitive to non-steroid | less sensitive to non-steroid | responded well to non-steroid but not to PonA | very little induction |  | 
MmRXRα-LmUSP chimera: chimeric RXR LBD: helices 1-7 of MmRXRα-EF and helices 8-12 of LmUSP-EF (SEQ ID NO: 45), fused to VP16 (protein) MGPKKKRKVAPPTDVSLGDELHLDGEDVAMAHADALDDFDLDMLGDGDSPGPGFTPHDSAPYGALDMADFEFEQMFTDALGIDEYGGEFPANEDMPVEKILEAELAVEPKTETYVEANMGLNPSSPNDPVTNICQAADKQLFTLVEWAKRIPHFSELPLDDQVILLRAGWNELLIASFSHRSIAVKDGILLATGLHVHRNSAHSAGVGAIFDRVLTELVSKMRDMQMDKTELGCLRSVILFNPEVRGLKSAQEVELLREKVYAALEEYTRTTHPDEPGRFAKLLLRLPSLRSIGLKCLEHLFFFRLIGDVPIDTFLMEMLESPSDS |  |  |  |  |  |  | 11,000 fold | 1759 fold

Source: US8236556B2, “Method of modulating gene expression using an ecdysone receptor-based inducible gene expression system” (Intrexon Corporation, priority 2001, dated 2012)
